Assay results taken from publication PMC7417534, “Cytochrome P450 inhibition potential and initial genotoxic evaluation of 14-O-[(4,6-diaminopyrimidine-2-yl)thioacetyl] mutilin” (Scientific Reports, 2020).
Where two headings read alike, the source gives them in different places.

Key:
CYP3A4 = conditions: cited from earlier work
S. typhimurium TA97 = assay: Ames test, strain TA97; format: cell-based, Salmonella typhimurium; conditions: − S9; positive control, 10 μg/plate
Description: (§1) S. typhimurium strains TA97, TA98, TA100, TA102 and TA1535 were stored and maintained as provided in the standard protocol. Each of the strains was checked for their genetic integrity prior to the experiment, and tested for biotin dependence, histidine dependence, biotin and histidine dependence, rfa marker (crystal violet) and presence of the plasmid pKM101 (ampicillin resistance) or pAQ1 (tetracycline resistance). Different strains were used to identify different types of mutations.
(§2) The test was carried out at five different concentrations of DPTM. […] Then 1 mL solution was diluted with distilled water by two fold. […] The negative control used in this experiment was 1 mL DMSO which was directly incorporated into 9 mL melted top agar.
(§3) The Ames test of DPTM was conducted as described in the literatures[42],[43] with some modifications. Briefly, 1 mL of strain was inoculated into 5 mL of nutrient broth, followed by incubating overnight at 37 °C. The mixture comprised respective strains, drug, negative and positive controls with the S9 for testing in the presence of metabolic activation system. For testing without S9, 1 × phosphate buffer saline (PBS, pH 7.4) replaced the S9 mix. The obtained mixtures were added into the tube, mixed well and incubated at 37 °C for 20 min. Then, the top agar was melted and 2 mL of this melted top agar was added to each tube and gently mixed. […] The results were expressed as the number of revertant colonies per plate. The experiments were performed in triplicate.

S. typhimurium TA100 = conditions: − S9; positive control, 5 μg/plate
Description: as §1, §2, §3

S. typhimurium TA1535 = conditions: − S9; positive control, 5 μg/plate
Description: as §1, §2, §3

In the case of C=C[C@]1(C)C[C@@H](OC(=O)CSc2nc3ccc(N)cc3[nH]2)[C@]2(C)[C@H](C)CC[C@]3(CCC(=O)[C@H]32)[C@@H](C)[C@@H]1O [14-O-((5-Amino-benzimidazole-2-yl)thioacetyl) mutilin], the IC50 (CYP3A4; read-out: IC50 value, CYP3A4 inhibition) is given as 1690 nM.

With Nc1ccc([N+](=O)[O-])cc1N [4-nitro-o-phenylenediamine, reference compound] the “revertant colonies per plate, TA97” value (S. typhimurium TA97) was 803 ± 37 CFU.

In the case of [N-]=[N+]=[N-].[Na+] [sodium azide, reference compound], the “revertant colonies per plate, TA100” value (S. typhimurium TA100) is reported as 984 ± 59 CFU and the “revertant colonies per plate, TA1535” value (S. typhimurium TA1535) is reported as 774 ± 20 CFU.

In the case of C=C[C@]1(C)C[C@@H](OC(=O)CS[C@@H]2CC[C@@H](N)C[C@H]2O)[C@]2(C)[C@H](C)CC[C@]3(CCC(=O)[C@H]32)[C@@H](C)[C@@H]1O [Lefamulin], the IC50 (CYP3A4; read-out: IC50, inhibition for CYP3A4) is given as under 5000 nM.
